US5567736A, “Use of a choline salt to inhibit fatty liver in patients receiving total parenteral nutrition” (priority 1994, dated 1996)
Values joined by “and” are separate entries in the source; they are usually repeats but may differ in a detail not shown here. Equal entries are not always repeated.

Experiments:
[1] = all subjects; baseline 5.2±2.1, normal 11.4+/-3.7 nmol/ml
Description: (§1) Four subjects who were known to have low plasma free choline levels and hepatic steatosis were studied. The subjects included 3 females aged 45, 50 and 72 years and 1 person. Two subjects had short bowel syndrome from Crohn's disease, one had radiation enteritis and the fourth had pseudo-obstruction. The subjects had received home TPN for 9.7±4.7 years. Their TPN consisted of 2-3L of 15-25% dextrose solution with 3.0-3.5% amino acids, electrolytes, trace elements and vitamins. All subjects received 19.5±3.7 kcal-kg day actual body weight (range 16-24 kcal/kg/d). This level of support varied between subjects depending upon individual variation in oral intake and intestinal absorption.
(§2) Plasma-free choline level, serum SGOT, SGPT and total cholesterol levels were measured at each visit. Plasma free choline was measured by gas chromatography and mass spectrophotometry (See Jenden DJ, Roch M, Booth RA. Simultaneous measurements of endogenous and deuterium-labeled tracer variants of choline and acetylcholine in subpicomole quantities by gas chromatography spectrometry. Anal Biochem. 55:438-48, 1973; and Freeman JJ, Choi RL, Jenden DJ. Plasma choline: its turnover and exchange with brain choline. J. Neurochem. 24:729-34, 1975.)
The hepatic transaminase levels and cholesterol were determined using standard automated techniques. […]

[2] = tested on: hepatic steatosis (liver)
Description: as §1, with “females” for “females aged 45, 50 and 72 years”
Intravenous lipid (Intralipid 20%, Clintec, Deerfield, Ill.) supplied 42.5%±25.7% of daily intravenous caloric intake. […] The TPN solution for each subject included 2.3-5 g of methionine on a daily basis depending upon the total amino acid concentration. The vitamin preparation included 5 μg vitamin B12 and 400 μg folate on a daily basis. All subjects received their TPN nightly as one dose over a period of 10-12 hours.
as §2
Computed tomography (CT) was used as a non-invasive method for quantifying hepatic fat density. Limited non-contrast CT scanning of the liver and spleen was performed using a GE 9800 CT scanner (Milwaukee, Wis.). Multiple contiguous 1-cm axial sections at 1-cm intervals were obtained. Attenuation values for regions of interest in the liver and spleen were generated from multiple representative sections. An average (mean) CT number in Hounsfield units (HU) was then calculated for each organ. Liver density was determined using two currently acceptable methods: a) the average absolute liver CT number, and b) the liver-spleen differential obtained by subtracting the average spleen CT number from the average liver CT number (to correct for interscan variability).
In the normal state, the liver and spleen maintain a fairly constant relationship in terms of relative CT numbers on non-contrast scans. On the main scanner employed at our institution, normal liver density corresponds to approximately 45 HU in absolute terms, and normal liver attenuation values exceed those of the spleen by approximately 8 HU (i.e., a liver-spleen differential of approximately positive 8 HU). Fat has a distinctly lower attenuation than other tissues and thus a distinct appearance on the CT image, as well as a distinctly low CT number in HU. Hepatic density and hepatic steatosis are therefore inversely related. Fatty liver was defined as an absolute CT number </=45 HU, or a liver-spleen differential of </= positive 8.0 HU (with 0-to-positive 8 HU representing borderline fatty change and </=0 HU corresponding to marked fatty infiltration).

total serum cholesterol = conditions: during the study
Procedure: as §2
(§3) The hepatic transaminase levels and cholesterol were determined using standard automated techniques. Plasma phospholipid bound choline was measured at baseline, at the end of the 6 week nightly choline infusion and 4 weeks later following extraction as described by Folch et al (Folch J, Lees M, Stanley GHS. A simple method for the isolation and purification of total lipids from animal tissue. J. Bio Chem. 226:497-509, 1957.) and hydrolysis as described by Jope and Jenden (Jope RS, Jenden DJ. Choline and phospholipid metabolism and the synthesis of acetylcholine in rat brain. J. Neurosci Res. 4:69-82, 1979.). All blood samples were obtained on the subjects following an overnight fast and 3-5 hours following completion of the TPN.

[3] = tested on: hepatic transaminase levels; conditions: during the study, except Subject #1; three of four subjects had normal AST and ALT at baseline
Procedure: as §2, §3

[4] = Subject #4, pharmacokinetic studies preceding the 6 week choline infusion
[5] = Description: as §1, with “females” for “females aged 45, 50 and 72 years”
as §2

Remark: listed apart in the source
[6] = concentrations as high as 10 g/l
[7] = various TPN nutrient solutions, at least 30 days

Compound: C[N+](C)(C)CCO.[Cl-] [choline chloride]
- plasma free choline level after one week of choline supplementation [1]: increased into the normal range
- Liver-spleen Hounsfield unit differential, 4 Wks post choline ([2]; 4 weeks after choline discontinued, b48 Subject 1 (baseline -47.0), b50 Subject 2 (-0.7), b52 Subject 3 (0.3)): 10.6 Hounsfield unit and 15.7 Hounsfield unit and 15.0 Hounsfield unit
- Liver-spleen Hounsfield unit differential, 10 weeks post choline supplementation ([2]; Subject 4 (baseline -9.4), 10 weeks post choline supplementation): -6.3 Hounsfield unit
- liver-spleen CT number differential, normalisation ([2]; concurrent scans, six weeks of choline): assumed a normal or near-normal relationship
- hepatic steatosis four weeks after choline was discontinued ([2]; follow-up post-supplementation CT): had not yet returned to baseline
- improvement of CT number difference (liver-spleen subtraction method), average ([2]; initial CT two weeks after choline started vs baseline, 4 subjects, p=0.002): 20+/-16.5 HU
- hepatic steatosis ten weeks after choline supplemented TPN discontinued ([2]; one subject (printed #3)): had recurred
- liver density ten weeks after choline supplemented TPN discontinued ([2]; one subject (printed #3)): appeared identical to the baseline CT scan
- liver-spleen differential ten weeks after choline supplemented TPN discontinued ([2]; one subject (printed #3)): returned to its original, pre-choline supplementation value
- hepatic steatosis during six weeks of choline supplementation ([2]; six weeks of choline, all four subjects): completely resolved in all four subjects
- liver density at initial CT scan ([2]; two weeks after choline supplementation initiated): marked increase in liver density
- hepatic steatosis at initial CT scan ([2]; two weeks after choline supplementation initiated, all 4 subjects): decreased significantly in all 4 subjects
- CT number difference (liver-spleen subtraction method), mean after choline ([2]; two weeks of choline, 4 subjects, baseline -14.2+/-22.3 HU, p=0.002): 8.4 +/-10.3 HU
- total serum cholesterol (total serum cholesterol): No change
- hepatic transaminase levels [3]: No significant decreases
- plasma free choline level tolerated without any side effects [4]: ≤ 230 nmol/mL
- tolerability after dose increased back to 1 g/day ([5]; Subject #4, from day 30 for remainder of study, 1 g/day): without complaints
- side effect requiring dose adjustment ([5]; Subject #4, upon awakening at end of choline infusion, dose decreased from 2 g/day to 1 g/day, then 1 g every other day): mild nausea
- side effects or dose adjustment in other subjects ([5]; subjects other than #4): No other subject experienced any side effects or required a dose adjustment
- effect on amino acid availability of the TPN solution [6]: does not affect
- effect on pH of the TPN solution [6]: does not affect
- stability in TPN solution [6]: at least 30 days
- stability in various TPN nutrient solutions (various TPN nutrient solutions): at least 30 days
- effect on TPN solution amino acid concentrations [7]: no adverse affects
- effect on TPN solution pH [7]: no adverse affects
- effect on TPN solution turbidity [7]: no adverse affects
